Experimental data from the OligoGym collection.
Values joined by “and” are separate entries in the source; they are usually repeats but may differ in a detail not shown here. Equal entries are not always repeated. After the bases stand the sugars from the 5' end (letter, count) and the backbone: PS all phosphorothioate, else s phosphorothioate and o phosphodiester by linkage. Methylation of C is not given here. e = 2'-O-(2-methoxyethyl) (MOE); k = constrained ethyl (cEt); d = 2'-deoxy (DNA)

Target: SOD1
Settings: ASO

With “GTTTAATGTTTATCAGGA (sugars e5 d8 e5, linkages s1 o3 s9 o2 s2)” the target mRNA inhibition (A431, 0.12 µM) was 15%, the target mRNA inhibition (A431, 0.6 µM) was 51% and the target mRNA inhibition (A431, 3 µM) was 68%. For the same sequence, the target mRNA inhibition (A431, 15 µM) was 84%, the target mRNA inhibition (HepG2, 0.222 µM) was 45% and the target mRNA inhibition (HepG2, 0.667 µM) was 73%. For the same sequence, the target mRNA inhibition (HepG2, 2 µM) was 78% and the target mRNA inhibition (HepG2, 6 µM) was 87%.

For “CTCACTACAGGTACTTTAAA (sugars e5 d10 e5, PS)”, the target mRNA inhibition (HepG2, 5 µM) was 25%.

“GCCCAAGTCTCCAACATGCC (sugars e5 d10 e5, PS)” was tested, and the target mRNA inhibition (HepG2, 5 µM) was 61% and 53%.

Work on “CAAGTTTAATACCCATC (sugars e2 k2 d9 k2 e2, PS)” yielded a target mRNA inhibition (HepG2, 5 µM) of 62%.

With “CTCCGCGCCTCGCCCACTCT (sugars e5 d10 e5, PS)” the target mRNA inhibition (HepG2, 4 µM) was 40%.

Sequence “CATAATAAGTGCCATAC (sugars e2 k2 d9 k2 e2, PS)” has a target mRNA inhibition (HepG2, 5 µM) of 34%.

Sequence “TGGGCGATCCCAATTAC (sugars e2 k2 d9 k2 e2, PS)” has a target mRNA inhibition (HepG2, 4 µM) of 46%.

“TCAGGATACATTTCTACAGC (sugars e5 d10 e5, linkages s1 o3 s11 o3 s1)” was tested, and the target mRNA inhibition (A431, 0.12 µM) was 9%, the target mRNA inhibition (A431, 0.6 µM) was 8% and the target mRNA inhibition (A431, 3 µM) was 21%. It also gave a target mRNA inhibition (A431, 15 µM) of 49%, a target mRNA inhibition (HepG2, 0.222 µM) of 25% and a target mRNA inhibition (HepG2, 0.667 µM) of 50%. For the same sequence, the target mRNA inhibition (HepG2, 2 µM) was 92% and the target mRNA inhibition (HepG2, 6 µM) was 73%.

For “AAACTATACAAATCTTC (sugars e3 k2 d7 k2 e3, PS)”, the target mRNA inhibition (HepG2, 3 µM) was 26%.

With “AGTCTGGCAAAATACAG (sugars e3 k2 d7 k2 e3, PS)” the target mRNA inhibition (HepG2, 3 µM) was 1%.

“TTTTAGTTTGAATTTGG (sugars e3 k2 d7 k2 e3, PS)” gave a target mRNA inhibition (HepG2, 3 µM) of 12%.

For “CTTCAATAGACACATCGGCC (sugars e5 d10 e5, PS)”, the target mRNA inhibition (HepG2, 5 µM) was 39% and 16%.

“CACTTTTAAGATTACAG (sugars e2 k2 d8 k2 e3, PS)” showed a target mRNA inhibition (HepG2, 5 µM) of 37%.

Work on “CCGAGGACTGCAACGGAAAC (sugars e5 d10 e5, PS)” yielded a target mRNA inhibition (HepG2, 4 µM) of 29%.

With “CCTCATAATAAGTGCCATAC (sugars e5 d10 e5, PS)” the target mRNA inhibition (HepG2, 5 µM) was 23%.

“TCCCCACACCTTCACT (sugars ekddddddddekekee, linkages s1 o1 s8 o3 s2)” gave a target mRNA inhibition (A431, 0.12 µM) of 0%, a target mRNA inhibition (A431, 0.6 µM) of 0% and a target mRNA inhibition (A431, 3 µM) of 7%. It also gave a target mRNA inhibition (A431, 15 µM) of 21%, a target mRNA inhibition (HepG2, 0.222 µM) of 16% and a target mRNA inhibition (HepG2, 0.667 µM) of 34%. For the same sequence, the target mRNA inhibition (HepG2, 2 µM) was 58% and the target mRNA inhibition (HepG2, 6 µM) was 80%.

“TGGGCCGTCGCCCTTCAGCA (sugars e5 d10 e5, PS)” showed a target mRNA inhibition (HepG2, 4 µM) of 12%.

“TGAAAAAGTCACACAATTAC (sugars e5 d10 e5, PS)” gave a target mRNA inhibition (HepG2, 5 µM) of 0%.

Sequence “AATCCATGCAGGCCTTC (sugars e3 k2 d7 k2 e3, PS)” has a target mRNA inhibition (HepG2, 3 µM) of 13%.

With “TTCAGTCAGTCCTTTAATGC (sugars e5 d10 e5, PS)” the target mRNA inhibition (HepG2, 5 µM) was 24% and 21%.

“CTCTCTTCATCCTTTGG (sugars e3 k2 d7 k2 e3, PS)” was tested, and the target mRNA inhibition (HepG2, 3 µM) was 2%.

“CCATACAGGGTTTTTAT (sugars e2 k2 d8 k2 e3, PS)” showed a target mRNA inhibition (HepG2, 5 µM) of 13%.

Sequence “CATGGACCACCAGTGTGCGG (sugars e5 d10 e5, PS)” has a target mRNA inhibition (HepG2, 5 µM) of 25%.

“TGCTTCCCCACACCTTC (sugars e3 k2 d7 k2 e3, PS)” was tested, and the target mRNA inhibition (HepG2, 3 µM) was 43%.

“TTTCTCACTACAGGTAC (sugars e2 k2 d8 k2 e3, PS)” was tested, and the target mRNA inhibition (HepG2, 5 µM) was 35%.

“CACAGGCTTGAATGACA (sugars e2 k2 d9 k2 e2, PS)” gave a target mRNA inhibition (HepG2, 5 µM) of 47%.

Work on “TAGCCTCATAATAAGTG (sugars e2 k2 d8 k2 e3, PS)” yielded a target mRNA inhibition (HepG2, 5 µM) of 11%.

“CATCTGTGATTTAAGTCTGG (sugars e5 d10 e5, PS)” was tested, and the target mRNA inhibition (HepG2, 5 µM) was 29%.

Work on “TTTCTACAGCTAGCAGG (sugars e3 k2 d7 k2 e3, PS)” yielded a target mRNA inhibition (HepG2, 3 µM) of 38%.

“TGATTTAAGTCTGGCAA (sugars e2 k2 d9 k2 e2, PS)” showed a target mRNA inhibition (HepG2, 5 µM) of 52%.

“AGAGGATTAAAGTGAGG (sugars e3 k2 d7 k2 e3, PS)” was tested, and the target mRNA inhibition (HepG2, 3 µM) was 16%.

“AATGTTTATCAGGATAC (sugars e2 k2 d9 k2 e2, PS)” was tested, and the target mRNA inhibition (HepG2, 0.1875 µM) was 43%, the target mRNA inhibition (HepG2, 0.75 µM) was 75% and the target mRNA inhibition (HepG2, 3 µM) was 91%. For the same sequence, the target mRNA inhibition (HepG2, 4 µM) was 90% and the target mRNA inhibition (HepG2, 12 µM) was 97%.

“TGTTTATTGGGCGATCC (sugars e2 k2 d9 k2 e2, PS)” was tested, and the target mRNA inhibition (HepG2, 4 µM) was 47%.

For “GTCCTTTAATGCTTCCCCAC (sugars e5 d10 e5, PS)”, the target mRNA inhibition (HepG2, 4 µM) was 9%.

With “TCGCCCTTCAGCACGCA (sugars e2 k2 d8 k2 e3, PS)” the target mRNA inhibition (HepG2, 4 µM) was 56% and 55%, the target mRNA inhibition (HepG2, 5 µM) was 53% and 64% and the target mRNA inhibition (HepG2, 12 µM) was 71%.

With “CCGTCGCCCTTCAGCACGCA (sugars e5 d10 e5, PS)” the target mRNA inhibition (A431, 0.12 µM) was 0% and 5%, the target mRNA inhibition (A431, 0.6 µM) was 7% and 0% and the target mRNA inhibition (A431, 3 µM) was 17% and 0% and 7%. The target mRNA inhibition (HepG2, 0.1875 µM) was 0% and 3% and the target mRNA inhibition (HepG2, 0.222 µM) was 0% and 14%.

“GGTCCATTACTTTCCTT (sugars e3 k2 d7 k2 e3, PS)” gave a target mRNA inhibition (HepG2, 3 µM) of 18%.

For “GACTACTTTATAGGCCAGAC (sugars e5 d10 e5, PS)”, the target mRNA inhibition (HepG2, 4 µM) was 64% and 74% and the target mRNA inhibition (HepG2, 12 µM) was 80%.

For “GGCCACACCATCTTTGTCAG (sugars e5 d10 e5, PS)”, the target mRNA inhibition (HepG2, 5 µM) was 23% and 5%.

With “CAAATCTTCCAAGTGAT (sugars e3 k2 d7 k2 e3, PS)” the target mRNA inhibition (HepG2, 3 µM) was 18%.

“GCTAGCAGGATAACAGA (sugars e3 k2 d7 k2 e3, PS)” was tested, and the target mRNA inhibition (HepG2, 3 µM) was 10%.
